Several values for one entry are separate records, joined by “and”; a condition that tells them apart may be missing. Equal values may be shown once. Read-outs that look alike come from different tables or passages of the source. Marks after values point to notes of the source that are not given here.
Assays:
[1] = tested on: CHO-MG* cells; assay: Cytotoxicity IC50 determination (MTS) in polyamine-transport-deficient CHO-MG* cells; format: cell-based, Chinese hamster; conditions: 48 h at 37° C.
Source text: (§1) CHO cells were chosen along with a mutant cell line (CHO-MG*) to comment on how the synthetic conjugates gain access to the cells.^2c-e, 6 As discussed earlier, the CHO-MG cell line is polyamine-transport deficient and represents a model for alternative modes of entry (other than PTS) including passive diffusion or use of another transporter. The CHO cell line on the other hand, represents cells with high polyamine transport activity.^7, 10c A comparison of toxicity in these two CHO cell lines allowed for a screen that would detect selective use of the polyamine transporter. This is seen where high utilization of the PTS would be very toxic to CHO cells, however, there would not be the same level of toxicity found in CHO-MG cells.^2c-e, 6 Ultimately, a CHO-MG/CHO IC50 can be determined where a high ratio would be achieved for highly PTS selective compounds.
(§2) CHO and CHO-MG cells were grown in RPMI 1640 medium supplemented with 10% fetal calf serum and 1% penicillin/streptomycin. Note: the media must contain L-proline (2 μg/mL) for proper growth of the CHO-MG cells. MALME-3M cells were grown in RPMI 1640 medium supplemented with 10% FBS and 1% penicillin/streptomycin. […] Cells in early to mid-log phase were used.
(§3) Cell growth was assayed in sterile 96-well microtiter plates (Costar 3599, Corning, N.Y., USA). CHO and CHO-MG* cells were plated at 10,000 cells/mL. MALME-3M and MALME-3 cells were plated at 5,000 cells/mL. Drug solutions (10 μL per well) of appropriate concentration were added after an overnight incubation for each CHO cell line (90 μL). 48 h MALME-3M experiments were conducted using 10% Nu-Serum IV, and 96 h MALME-3M and MALME-3 experiments were conducted using 10% FBS. After exposure to the drug for 48 h (CHO, CHO-MG*, and MALME-3M) or 96 h (MALME-3M and MALME-3), cell growth was determined by measuring formazan
(§4) formation from 3-(4,5-dimethylthiazol-2-yl)-5-(3-carboxymethoxyphenyl)-2-(4-sulphenyl)-2H-tetrazolium) inner salt (MTS) using a SynergyMx Biotek microplate reader for absorbance ([…]) measurements.^24

[2] = tested on: CHO cells; assay: in vitro; format: cell-based; conditions: for IC50: 48 h at 37° C.; for MTD (μM) in CHO (maximum tolerated dose): hamster
Source text: as §1, §2, §3, §4

[3] = tested on: polyamine transport system (PTS), CHO-MG* vs CHO cells; assay: CHO-MG*/CHO IC50 ratio, a measure of PTS selectivity; format: cell-based, Chinese hamster; conditions: 48 h; for IC50 ratio w/AG (CHO-MG*/CHO): with 1 mM AG; for IC50 ratio w/o AG (CHO-MG*/CHO): without AG
Source text: Compounds with high CHO-MG/CHO IC50 ratios are considered PTS selective.
as §1

[4] = tested on: MALME-3 cells; assay: Cytotoxicity IC50 determination (MTS) in MALME-3 cells; format: cell-based, human; conditions: 96 h at 37° C., 1 mM AG, 10% FBS
Protocol: (§5) Armed with this insight, compounds 5a-8b were evaluated in the MALME-3M (melanoma) cell line and its non-cancerous counterpart MALME-3 obtained originally from the same patient. These matched cell lines provided a method to assess PTS selectivity for the cancer line (MALME-3M) over the non-cancerous cell line (MALME-3).
(§6) CHO and CHO-MG cells were grown in RPMI 1640 medium supplemented with 10% fetal calf serum and 1% penicillin/streptomycin. Note: the media must contain L-proline (2 μg/mL) for proper growth of the CHO-MG cells. MALME-3M cells were grown in RPMI 1640 medium supplemented with 10% FBS and 1% penicillin/streptomycin. All cells were grown at 37° C. under a humidified 5% CO2 atmosphere Aminoguanidine (1 mM) was added to the growth medium to prevent oxidation of the drugs by the enzyme (bovine serum amine oxidase) present in calf serum. Cells in early to mid-log phase were used.
as §3, §4

[5] = tested on: MALME-3M cells; assay: Cytotoxicity IC50 determination (MTS) in MALME-3M cells; format: cell-based, human
Protocol: as §5, with “(MALME-3). […]” for “(MALME-3).”
as §6, §3, §4

[6] = tested on: MALME-3M (melanoma) vs MALME-3 (normal) cells; assay: MALME-3/MALME-3M IC50 ratio, a measure of selectivity; format: cell-based, human; conditions: 96 h; 1 mM AG
Source text: These matched cell lines provided a method to assess PTS selectivity for the cancer line (MALME-3M) over the non-cancerous cell line (MALME-3).

[7] = tested on: polyamine transport system (PTS), CHO-MG vs CHO cells; conditions: original CHO-MG line; cited from earlier work
[8] = tested on: MALME-3 cells; assay: Spermidine rescue experiments in MALME-3 cells; format: cell-based, human; conditions: dosed near the IC50 value; increasing spermidine
Protocol: (§7) In order to validate that these drugs were toxic due to their use of the polyamine transport system, spermidine rescue experiments were conducted. Spermidine is a native polyamine and uses the PTS for cell entry. High concentrations of spermidine should outcompete the PTS-targeting drugs for cell entry. In this regard, spermidine when dosed at a non-toxic concentration should rescue the cells from the toxic effects of the PTS targeting agents. […] Both the anthryl and naphthyl systems when dosed at their IC50 concentrations gave >92% viability at 10 μM spermidine validating their use of the PTS. Rescue was observed from the initial 50% viability to >92% viability after co-dosing 10 μM spermidine.
(§8) As stated above, in an effort to determine if the cytotoxicities seen for compounds 6-8 were polyamine transport related, MALME-3M and MALME-3 were dosed near the IC50 value of each drug. These cells were also treated with increasing amounts of spermidine to see if it could outcompete compounds 6-8 for cellular entry and thus rescue the cells. […] This supports the premise that these compounds gain access to these cells primarily via the PTS. […] Since the viability of MALME-3M cells could be partially rescued by spermidine, compounds 8a and 8b may gain access via the PTS and via non-PTS related pathway(s).

[9] = tested on: polyamine transport system (PTS) in L1210 cells; conditions: cited from earlier work
[10] = tested on: MALME-3M cells; assay: Spermidine rescue experiments in MALME-3M cells; format: cell-based, human; conditions: drug at its IC50 concentration, co-dosed 10 μM spermidine; cell line not given
Protocol: as §7, §8

[11] = tested on: 60 human cancer cell lines; assay: NCI 60 cell-line screen; format: cell-based; conditions: 10 μM; 48 h
Protocol: Once compounds 6a-b, 7a-b, and 8a-8b were evaluated in CHO and CHO-MG*, these compounds were sent to the National Cancer institute (NCI) to conduct its 60 cell-line screen to determine if these compounds could also be potent anti-cancer agents for human cancer cell lines. […] As shown in FIGS. 2A-2C, dose response curves were generated based upon the 60 cell-line screen at different molar concentrations of each PTS targeting agent 6b, 7b, and 8b.
To generate FIGS. 2A-2C, the respective drug was dosed at 10 μM into each human cancer cell line and cell viability was assessed after a 48 h incubation at 37° C. in an environment of 5% CO2, 95% air and 100% relative humidity. A more descriptive methodology can be found at the NCI website: http://dtp.nci.nih.gov/branches/btb/ivclsp.html. Cell lines which gave bar graphs which extend to the right of the central line were more sensitive to the drug than cell lines which extended to the left of the center line.

[12] = tested on: 60 human cancer cell lines; assay: NCI 60 cell-line screen; format: cell-based; conditions: 5-dose assay
[13] = in vitro; format: cell-based; conditions: Chinese hamster
Source text: as §1, §2, §3, §4

[14] = 1 mM AG 24 h prior to drug addition, read-out: CHO-MG* IC50 (μM) w/AG
[15] = without AG, read-out: CHO-MG* IC50 (μM) w/o AG
[16] = 1 mM AG 24 h prior to drug addition, read-out: CHO IC50 (μM) w/AG
[17] = without AG, read-out: CHO IC50 (μM) w/o AG
[18] = 48 h at 37° C., 1 mM AG, 10% Nu-Serum IV, read-out: MALME-3M IC50 (μM) w/ AG
[19] = 48 h at 37° C., without AG, 10% Nu-Serum IV, read-out: MALME-3M IC50 (μM) w/o AG
[20] = 96 h at 37° C., 1 mM AG, 10% FBS, read-out: MALME-3M IC50
[21] = Cricetulus griseus, CHO-MG, Table 4, 1 mM AG 24 h prior to drug addition, read-out: CHO-MG* IC50
[22] = Cricetulus griseus, CHO, Table 4, 1 mM AG 24 h prior to drug addition, read-out: CHO IC50

SMILES	IC50 [1, 14] [µM]	IC50 [1, 15] [µM]	IC50 [2, 16] [µM]	IC50 [2, 17] [µM]	IC50 ratio w/AG (CHO-MG*/CHO) [3]	IC50 ratio w/o AG (CHO-MG*/CHO) [3]	IC50 [4] [nM]	IC50 [5, 18] [µM]	IC50 [5, 19] [µM]	IC50 [5, 20] [µM]	MALME-3/MALME-3M IC50 ratio [6]	rescue by exogenous spermidine in MALME-3 [8]	IC50 [1, 21] [µM]	viability at 48 h, 0.01 μM [13] [%]	IC50 [2, 22] [µM]	MTD (μM) in CHO (maximum tolerated dose) [2]	other results
Cl.NCCCCNCCCCNCc1c2ccccc2cc2ccccc12 [Compound 5a, reference compound]	13.7	2.2	0.32	1.5	43 and 42.8	1.4	830	0.48	0.29	0.27	3.1	–	–	–	–	–	CHO-MG/CHO IC50 ratio [7]: 150 and 148
Cl.NCCCCNCCCCNCc1ccc(CNCCCCNCCCCN)cc1 [Compound 8a]	19.6	56.5	0.027	10.3	727	5.5	90	0.01	0.4	0.005	18	complete rescue	–	–	–	–	Ki ([9]; read-out: Ki in L1210 cells): 520 nM; Ki ([9]; unit inferred, read-out: Ki values in L1210 cells): 490 ± 20 nM
CNCCCCNCCCCNCc1ccc(CNCCCCNCCCCNC)cc1 [Compound 8b, N1,N1′-(1,4-Phenylenebis(methylene))bis(N4-(4-(methylamino)butyl)butane-1,4-diamine)]	–	–	–	–	1715	1316	–	–	–	–	2	complete rescue	–	–	–	–	IC50 ([1]; Cricetulus griseus, CHO-MG, 1 mM AG 24 h prior to drug addition, read-out: CHO-MG* IC50 (μM) w/AG): 51.5 µM; IC50 ([1]; Cricetulus griseus, CHO-MG, without AG, read-out: CHO-MG* IC50 (μM) w/o AG): 54 µM; IC50 ([2]; Cricetulus griseus, CHO, 1 mM AG 24 h prior to drug addition, read-out: CHO IC50 (μM) w/AG): 0.03 µM; IC50 ([2]; Cricetulus griseus, CHO, without AG, read-out: CHO IC50 (μM) w/o AG): 0.041 µM; IC50 ([4]; Homo sapiens, MALME-3): 20 nM; IC50 ([5]; Homo sapiens, Malme-3M, 48 h at 37° C., 1 mM AG, 10% Nu-Serum IV, read-out: MALME-3M IC50 (μM) w/ AG): 0.007 µM; IC50 ([5]; Homo sapiens, Malme-3M, 48 h at 37° C., without AG, 10% Nu-Serum IV, read-out: MALME-3M IC50 (μM) w/o AG): 0.007 µM; IC50 ([5]; Homo sapiens, Malme-3M, 96 h at 37° C., 1 mM AG, 10% FBS, read-out: MALME-3M IC50): 0.01 µM; viability at 10 μM spermidine [10]: 75%; effect on breast cancer cell lines in the NCI 60 cell-line screen [11]: exhibited an anti-proliferation effect in breast cancer cell lines, particularly the T-47D cell line; effect on melanoma cell lines in the NCI 60 cell-line screen [11]: inhibited the proliferation of melanoma cell lines, particularly the MALME-3M cell line; NCI 5-dose assay, MALME-3M cell line [12]: dose dependent response
NCCCCNCCCCNCc1cccc(CNCCCCNCCCCN)c1 [Compound 34a, N^1,N^1′-(1,3-phenylenebis(methylene))bis(N^4-(4-aminobutyl)butane-1,4-diamine)]	–	–	–	–	1072	–	–	–	–	–	–	–	30	~90	0.028	0.01^f μM	–
NCCCCNCCCCNCCCCNCc1cccc(CNCCCCNCCCCNCCCCN)c1 [Compound 34b, N^1,N^1′-(1,3-phenylenebis(methylene))bis(N^4-(4-((4-aminobutyl)amino)butyl)butane-1,4-diamine)]	–	–	–	–	335	–	–	–	–	–	–	–	13.4	~90	0.04	0.01^g μM	–
